Among the test systems are MDA-N; SK-MEL-2; BT-549; KM12; NCI-H23; RPMI-8226; MCF7; NCI/ADR-RES; NCI-H522; 786-0; Malme-3M; A549; MOLT-4; EKVX; MDA-MB-231; Hs-578T; HCT-15; HOP-62; U-251; OVCAR-5.
Common to all, as to test: growth of human tumour cells (NCI), 48 h

Structures are written as SMILES.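 Five compound concentrations were applied to cells in 96-well plates for 48 hours; endpoints were derived by simple linear interpolation of the resulting dose-response curve. GI50: concentration for 50% inhibition of growth.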 Calls of active or inactive are those of the source. Cut-off read from the data, not from the text of the source: active = GI50 up to about 1.1 µM and inactive = higher.

For `CN1CCOC1(C)CO` (stereo not given), the GI50 in the assay with MDA-N, with SK-MEL-2, in the assay with BT-549, in the assay on KM12, in the assay with NCI-H23 and with RPMI-8226 was > 100 µM (inactive) in each case. Also, the GI50 in the assay with MCF7, in the assay on NCI/ADR-RES, in the assay with NCI-H522, in the assay on 786-0, in the assay with Malme-3M and with A549 was > 100 µM (inactive) throughout. Besides, the GI50 in the assay on MOLT-4 is > 100 µM (inactive); with EKVX, > 100 µM (inactive); in the assay with MDA-MB-231, > 100 µM (inactive); in the assay on Hs-578T it was > 100 µM (inactive); with HCT-15, over 100 µM; with HOP-62, > 100 µM (inactive). Further, the GI50 in the assay with U-251 and in the assay on OVCAR-5 was > 100 µM (inactive) each time.

For the origin of these results see ChEMBL document CHEMBL1201862, “PubChem BioAssay data set” (2004).
